# ChEMBL document CHEMBL1201862, “PubChem BioAssay data set” (2004)
#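 Grown in 96-well plates, cells were treated for 48 hours with each compound at five concentrations. Insufficient inhibition: endpoint recorded as highest concentration tested. The concentration for 50% growth inhibition is given as GI50.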 The source made the active and inactive calls. Rule as the data show it: active = GI50 up to about 1.1 µM and inactive = higher.
# What was measured:
# Test in all cases: growth of human tumour cells (NCI), 48 h
# 786-0 = tested on: 786-0
# A498 = tested on: A498
# A549 = tested on: A549
# ACHN = tested on: ACHN
# BT-549 = tested on: BT-549
# CAKI-1 = tested on: CAKI-1
# CCRF-CEM = tested on: CCRF-CEM
# COLO 205 = tested on: COLO 205
# DU-145 = tested on: DU-145
# EKVX = tested on: EKVX
# HCC 2998 = tested on: HCC 2998
# HCT-116 = tested on: HCT-116
# HCT-15 = tested on: HCT-15
# HL-60 = tested on: HL-60
# HOP-92 = tested on: HOP-92
# HT-29 = tested on: HT-29
# Hs-578T = tested on: Hs-578T
# IGROV-1 = tested on: IGROV-1
# K562 = tested on: K562
# KM12 = tested on: KM12
# LOX IMVI = tested on: LOX IMVI
# M14 = tested on: M14
# MCF7 = tested on: MCF7
# MDA-MB-231 = tested on: MDA-MB-231
# MDA-MB-435 = tested on: MDA-MB-435
# MDA-N = tested on: MDA-N
# MOLT-4 = tested on: MOLT-4
# Malme-3M = tested on: Malme-3M
# NCI-H226 = tested on: NCI-H226
# NCI-H23 = tested on: NCI-H23
# NCI-H460 = tested on: NCI-H460
# NCI-H522 = tested on: NCI-H522
# NCI/ADR-RES = tested on: NCI/ADR-RES
# OVCAR-3 = tested on: OVCAR-3
# OVCAR-4 = tested on: OVCAR-4
# OVCAR-5 = tested on: OVCAR-5
# OVCAR-8 = tested on: OVCAR-8
# PC-3 = tested on: PC-3
# RPMI-8226 = tested on: RPMI-8226
# RXF 393 = tested on: RXF 393
# SF-268 = tested on: SF-268
# SF-295 = tested on: SF-295
# SF-539 = tested on: SF-539
# SK-MEL-28 = tested on: SK-MEL-28
# SK-MEL-2 = tested on: SK-MEL-2
# SK-MEL-5 = tested on: SK-MEL-5
# SK-OV-3 = tested on: SK-OV-3
# SN12C = tested on: SN12C
# SNB-19 = tested on: SNB-19
# SNB-75 = tested on: SNB-75
# SR = tested on: SR
# SW-620 = tested on: SW-620
# T47D = tested on: T47D
# U-251 = tested on: U-251
# UACC-257 = tested on: UACC-257
# UACC-62 = tested on: UACC-62
# UO-31 = tested on: UO-31
compound,measurement,setting,value
CCOC(=O)CCC(NC(=O)c1ccc(OCc2nc3cc(C(F)(F)F)ccc3nc2-c2ccccc2)cc1)C(=O)OCC (configuration not stated),GI50,786-0,> 100 µM (inactive)
same,GI50,A498,> 100 µM (inactive)
same,GI50,A549,> 100 µM (inactive)
same,GI50,ACHN,94.2 µM (inactive)
same,GI50,BT-549,56.6 µM (inactive)
same,GI50,CAKI-1,74.8 µM (inactive)
same,GI50,CCRF-CEM,58.2 µM (inactive)
same,GI50,COLO 205,17.9 µM (inactive)
same,GI50,DU-145,86.1 µM (inactive)
same,GI50,EKVX,> 100 µM (inactive)
same,GI50,HCC 2998,> 10 µM (inactive)
same,GI50,HCT-116,52.2 µM (inactive)
same,GI50,HCT-15,68.2 µM
same,GI50,HL-60,> 100 µM (inactive)
same,GI50,HOP-92,79.6 µM (inactive)
same,GI50,HT-29,> 100 µM (inactive)
same,GI50,Hs-578T,35.8 µM (inactive)
same,GI50,IGROV-1,75.2 µM (inactive)
same,GI50,K562,46.6 µM (inactive)
same,GI50,KM12,29 µM (inactive)
same,GI50,LOX IMVI,> 100 µM (inactive)
same,GI50,M14,81.7 µM (inactive)
same,GI50,MCF7,5.37 µM (inactive)
same,GI50,MDA-MB-231,> 100 µM (inactive)
same,GI50,MDA-MB-435,84.1 µM (inactive)
same,GI50,MDA-N,55.5 µM (inactive)
same,GI50,MOLT-4,40 µM (inactive)
same,GI50,Malme-3M,87.3 µM (inactive)
same,GI50,NCI-H226,13 µM (inactive)
same,GI50,NCI-H23,85.3 µM (inactive)
same,GI50,NCI-H460,52.1 µM (inactive)
same,GI50,NCI-H522,> 100 µM (inactive)
same,GI50,NCI/ADR-RES,54 µM (inactive)
same,GI50,OVCAR-3,79.1 µM (inactive)
same,GI50,OVCAR-4,13.7 µM (inactive)
same,GI50,OVCAR-5,> 100 µM (inactive)
same,GI50,OVCAR-8,> 100 µM (inactive)
same,GI50,PC-3,42.7 µM (inactive)
same,GI50,RPMI-8226,43.9 µM (inactive)
same,GI50,RXF 393,85.7 µM (inactive)
same,GI50,SF-268,37.3 µM (inactive)
same,GI50,SF-295,40.6 µM (inactive)
same,GI50,SF-539,> 100 µM (inactive)
same,GI50,SK-MEL-28,> 100 µM (inactive)
same,GI50,SK-MEL-2,22 µM (inactive)
same,GI50,SK-MEL-5,31.6 µM (inactive)
same,GI50,SK-OV-3,> 100 µM (inactive)
same,GI50,SN12C,> 100 µM (inactive)
same,GI50,SNB-19,> 100 µM (inactive)
same,GI50,SNB-75,4.07 µM (inactive)
same,GI50,SR,16.4 µM (inactive)
same,GI50,SW-620,> 100 µM (inactive)
same,GI50,T47D,20.4 µM (inactive)
same,GI50,U-251,> 100 µM (inactive)
same,GI50,UACC-257,67.3 µM (inactive)
same,GI50,UACC-62,52.8 µM (inactive)
same,GI50,UO-31,37.9 µM (inactive)
